The test system of one data set is MDR1. Kind of data set: MDCK-MDR1 permeability assay (BBB penetration potential). In kind it is in vitro ADME. The settings on record: dog, MDCK-MDR1, pH 7.4, Papp (B-to-A)/Papp (A-to-B); 5 μM, 120 minutes; separated enantiomers, told apart by chiral retention time; read-out: MDCK MDRP1 Efflux Ratio. On the procedure: (§1) Each determination is performed in duplicate. […] Analytical conditions are outlined below.
(§2) Papp=(dCr/dt)×Vr/(A×CA) (1)

Data set [1] has as its system MDR1-MDCK cell monolayers. The description is as above. Type of data set: in vitro ADME. As to conditions: Papp (B-to-A)/Papp (A-to-B); 5 μM, 120 minutes; separated enantiomers, told apart by chiral retention time. On the procedure:
as §1, §2

Where “and” joins values, the source holds several entries; their conditions need not be identical. Identical values can stand only once.

As to `CN(c1nnc(-c2ccc(-c3cnn(C)c3)cc2O)s1)[C@@H]1C[C@H]2CCC[C@H](N2)[C@@H]1F` (racemic) [1A/1B, 2-(5-(((1S,2S,3R,5R)-2-fluoro-9-azabicyclo[3.3.1]nonan-3-yl)(methyl)amino)-1,3,4-thiadiazol-2-yl)-5-(1-methyl-1H-pyrazol-4-yl)phenol and 2-(5-(((1R,2R,3S,5S)-2-fluoro-9-azabicyclo[3.3.1]nonan-3-yl)(methyl)amino)-1,3,4-thiadiazol-2-yl)-5-(1-methyl-1H-pyrazol-4-yl)phenol], the efflux ratio at 120 min, 5 μM with MDR1 worked out at 5.5. For the same compound, the “MDCK MDRP1 Efflux Ratio” value in data set [1] is 6.
For `COc1cc(-c2ccc(-c3nnc(N(C4CC4)[C@@H]4C[C@H]5CC[C@H](N5)[C@@H]4F)s3)c(O)c2)cc(F)n1` (racemic) [2A/2B, 2-(5-(cyclopropyl((1S,2S,3R,5R)-2-fluoro-8-azabicyclo[3.2.1]octan-3-yl)amino)-1,3,4-thiadiazol-2-yl)-5-(2-fluoro-6-methoxypyridin-4-yl)phenol and 2-(5-(cyclopropyl((1R,2R,3S,5S)-2-fluoro-8-azabicyclo[3.2.1]octan-3-yl)amino)-1,3,4-thiadiazol-2-yl)-5-(2-fluoro-6-methoxypyridin-4-yl)phenol], in the data set on MDR1, the efflux ratio at 120 min, 5 μM was determined as 5.
As for `CN(c1nnc(-c2ccc(-c3cnn(C)c3)cc2O)s1)[C@H]1C[C@@H]2CC[C@@H](N2)[C@H]1F` (racemic) [3A/3B, 2-(5-(((1R,2R,3S,5S)-2-fluoro-8-azabicyclo[3.2.1]octan-3-yl)(methyl)amino)-1,3,4-thiadiazol-2-yl)-5-(1-methyl-1H-pyrazol-4-yl)phenol], in the data set with MDR1, the efflux ratio at 120 min, 5 μM amounted to 4.3. In data set [1], the “MDCK MDRP1 Efflux Ratio” value was determined as 5.3.
Consider `COc1cc(-c2ccc(-c3nnc(N(C)[C@@H]4C[C@H]5CC[C@H](N5)[C@@H]4F)s3)c(O)c2)ncn1` (racemic) [5A/5B, 2-(5-{[(1S,2S,3R)-2-fluoro-8-azabicyclo[3.2.1]octan-3-yl](methyl)amino}-1,3,4-thiadiazol-2-yl)-5-(6-methoxypyrimidin-4-yl)phenol and 2-(5-{[(2R,3S,5S)-2-fluoro-8-azabicyclo[3.2.1]octan-3-yl](methyl)amino}-1,3,4-thiadiazol-2-yl)-5-(6-methoxypyrimidin-4-yl)phenol], for which the efflux ratio at 120 min, 5 μM in the data set with MDR1 was found to be 2.
As for `CN(c1nnc(-c2ccc(-c3cn[nH]c3)cc2O)s1)[C@H]1C[C@@H]2CC[C@@H](N2)[C@H]1F` (racemic) [7A/7B, 2-(5-{[(1S,2S,3R,5R)-2-fluoro-8-azabicyclo[3.2.1]octan-3-yl](methyl)amino}-1,3,4-thiadiazol-2-yl)-5-(1H-pyrazol-4-yl)phenol and 2-(5-{[(1R,2R,3S,5S)-2-fluoro-8-azabicyclo[3.2.1]octan-3-yl](methyl)amino}-1,3,4-thiadiazol-2-yl)-5-(1H-pyrazol-4-yl)phenol], in the data set on MDR1, the efflux ratio at 120 min, 5 μM was 12.
Regarding `CN(c1nnc(-c2ccc(-c3cc(=O)n(C)cn3)cc2O)s1)[C@@H]1C[C@H]2CC[C@H](N2)[C@@H]1F` (racemic) [8A/8B, 6-[4-(5-{[(1S,2S,3R)-2-fluoro-8-azabicyclo[3.2.1]octan-3-yl](methyl)amino}-1,3,4-thiadiazol-2-yl)-3-hydroxyphenyl]-3-methyl-3,4-dihydropyrimidin-4-one and 6-[4-(5-{[(2R,3S,5S)-2-fluoro-8-azabicyclo[3.2.1]octan-3-yl](methyl)amino}-1,3,4-thiadiazol-2-yl)-3-hydroxyphenyl]-3-methyl-3,4-dihydropyrimidin-4-one], the efflux ratio at 120 min, 5 μM in the data set on MDR1 was 21. Also, the “MDCK MDRP1 Efflux Ratio” value in data set [1] is recorded as 31.
For `CN(c1nnc(-c2cc(F)c(-c3cnn(C)c3)cc2O)s1)[C@H]1C[C@@H]2CC[C@@H](N2)[C@H]1F` (racemic) [9A/9B, 4-fluoro-2-(5-{[(1S,2S,3R,5R)-2-fluoro-8-azabicyclo[3.2.1]octan-3-yl](methyl)amino}-1,3,4-thiadiazol-2-yl)-5-(1-methyl-1H-pyrazol-4-yl)phenol and 4-fluoro-2-(5-{[(1R,2R,3S,5S)-2-fluoro-8-azabicyclo[3.2.1]octan-3-yl](methyl)amino}-1,3,4-thiadiazol-2-yl)-5-(1-methyl-1H-pyrazol-4-yl)phenol], in the data set with MDR1, the efflux ratio at 120 min, 5 μM amounted to 5. The “MDCK MDRP1 Efflux Ratio” value in data set [1] was 6.
As for `COc1cc(-c2ccc(-c3nnc(N(C)[C@@H]4C[C@H]5CC[C@H](N5)[C@@H]4F)s3)c(O)c2)ccn1` (racemic) [11A/11B, 2-(5-{[(1S,2S,3R)-2-fluoro-8-azabicyclo[3.2.1]octan-3-yl](methyl)amino}-1,3,4-thiadiazol-2-yl)-5-(2-methoxypyridin-4-yl)phenol and 2-(5-{[(2R,3S,5S)-2-fluoro-8-azabicyclo[3.2.1]octan-3-yl](methyl)amino}-1,3,4-thiadiazol-2-yl)-5-(2-methoxypyridin-4-yl)phenol], the efflux ratio at 120 min, 5 μM with MDR1 is 2.
As for `CN(c1nnc(-c2ccc(-c3ccn(CF)c(=O)c3)cc2O)s1)[C@@H]1C[C@H]2CC[C@H](N2)[C@@H]1F` (racemic) [15A/15B, 4-[4-(5-{[(1S,2S,3R)-2-fluoro-8-azabicyclo[3.2.1]octan-3-yl](methyl)amino}-1,3,4-thiadiazol-2-yl)-3-hydroxyphenyl]-1-(fluoromethyl)-1,2-dihydropyridin-2-one and 4-[4-(5-{[(2R,3S,5S)-2-fluoro-8-azabicyclo[3.2.1]octan-3-yl](methyl)amino}-1,3,4-thiadiazol-2-yl)-3-hydroxyphenyl]-1-(fluoromethyl)-1,2-dihydropyridin-2-one], the efflux ratio at 120 min, 5 μM with MDR1 came to 40. Also, the “MDCK MDRP1 Efflux Ratio” value in data set [1] is on record as 66.
Take `CN(c1nnc(-c2ccc(-c3cnn(C)c3)cc2O)s1)[C@H]1C[C@@H]2CC[C@H]([C@H]1F)N2C` (racemic) [21A/21B, 2-(5-{[(1S,2S,3R,5R)-2-fluoro-8-methyl-8-azabicyclo[3.2.1]octan-3-yl](methyl)amino}-1,3,4-thiadiazol-2-yl)-5-(1-methyl-1H-pyrazol-4-yl)phenol and 2-(5-{[(1R,2R,3S,5S)-2-fluoro-8-methyl-8-azabicyclo[3.2.1]octan-3-yl](methyl)amino}-1,3,4-thiadiazol-2-yl)-5-(1-methyl-1H-pyrazol-4-yl)phenol]: the efflux ratio at 120 min, 5 μM in the data set with MDR1 is 3. Further, the “MDCK MDRP1 Efflux Ratio” value in data set [1] stood at 4.
Taken in the same sequence, the figures for `CN(c1nnc(-c2ccc(-c3cn[nH]c3)cc2O)s1)[C@H]1C[C@@H]2CC[C@H]([C@H]1F)N2C` (racemic) [23A/23B, 2-(5-{[(1S,2S,3R,5R)-2-fluoro-8-methyl-8-azabicyclo[3.2.1]octan-3-yl](methyl)amino}-1,3,4-thiadiazol-2-yl)-5-(1H-pyrazol-4-yl)phenol and 2-(5-{[(1R,2R,3S,5S)-2-fluoro-8-methyl-8-azabicyclo[3.2.1]octan-3-yl](methyl)amino}-1,3,4-thiadiazol-2-yl)-5-(1H-pyrazol-4-yl)phenol] were 7 and 9.
Consider `CN(c1nnc(-c2ccc(-c3cnn(C)c3)cc2O)s1)[C@H]1C[C@@H]2CC[C@H]([C@H]1F)N2C` (racemic) [25A/25B, 2-(5-{[(1S,2S,3R,5R)-2-fluoro-8-methyl-8-azabicyclo[3.2.1]octan-3-yl](methyl)amino}-1,3,4-thiadiazol-2-yl)-5-(1-methyl-1H-pyrazol-4-yl)phenol and 2-(5-{[(1R,2R,3S,5S)-2-fluoro-8-methyl-8-azabicyclo[3.2.1]octan-3-yl](methyl)amino}-1,3,4-thiadiazol-2-yl)-5-(1-methyl-1H-pyrazol-4-yl)phenol], for which the “MDCK MDRP1 Efflux Ratio” value in data set [1] is 3 and 4.
